# Results from patent publication US10144742B2 (Millennium Pharmaceuticals, Inc., priority 2014, dated 2018).
# Where two headings read alike, the source gives them in different places.
# Experiments:
# [1] = target: hNAMPT protein (Homo sapiens (Human), UniProt P43490); experiment: NAMPT enzyme assay (TR-FRET/HTRF, BodiPY ligand, anti 6His-Tb); format: binding; settings: for IC50: read-out: IC50; for inhibition at 1 µM: read-out: Percent Inhibition
# From the text: As discussed above, the invention provides compounds that are useful as inhibitors of the enzyme NAMPT. The NAMPT inhibition of a compound of the invention can be measured using a variety of methods known in the art. For example, the ability of a compound of the invention to inhibit NAMPT enzyme activity can be measured using a homogeneous time resolved fluorescence (HTRF) assay using hNAMPT protein and anti 6His-Tb in buffer treated with a compound of the invention (or control e.g., DMSO) and BodiPY ligand. The TR-FRET signal can be measured using a high throughput microplate reader (e.g., Pherastar). Excitation can be carried out at 320 nm. The percent inhibition value at a single concentration of compound of the invention can be calculated relative to a control treated sample. A concentration response curve can be generated for each compound of the invention and the curve fitted to generate an IC50 value. […] Cat. No. […] To this solution is added test compounds or vehicle control (DMSO) and BodiPY ligand (structure below). The plate is shaken for 1-2 min, sealed and incubated for 1 hour at rt in the dark. The TR-FRET signal is measured using BMG Pherastar (Lanthascreen protocol on BMG Pherastar). Excitation was carried out at 320 nm, and the ratio of emission of BodiPY (520 nm) to terbium (486 nm) was determined. Concentration response curves are generated by calculating the excitation increase in test compound-treated samples relative to DMSO-treated controls. For the assay method described above, test compound percent inhibition values at a single concentration are calculated relative to control (DMSO) treated samples. Compound concentration response curves are fitted to generate IC50 values from those curves. One skilled in the art will appreciate that these values generated either as percentage inhibition at a single concentration or IC50 values are subject to experimental variation.
# [2] = test system: PC3 cells; experiment: PC3 growth inhibition (Cell-titer glo, 72 hours); format: cell-based; settings: Homo sapiens, PC-3, PC3 cells, 72 hours, Cell-titer glo, read-out: Percent Inhibition (PC3 growth inhibition); for inhibition at 1.667 µM: compound concentration 1.667 μM; for inhibition at 1 µM: compound concentration 1 μM
# Protocol: The ability of a compound of the invention to inhibit the growth of cells can be measured using a variety of methods known in the art. For example, the ability of a compound of the invention to inhibit the growth of PC3 cells can be measured. PC3 cells can be plated and incubated overnight under CO2. For each measurement, a compound of the invention (or vehicle e.g., DMSO) can be diluted with AIM serum free medium and added to the cell plate. The cell plate can then be incubated for 72 h under CO2. Cell-titer glo solution can be added and the plates can be incubated protected from light and the amount of luminescences can be measured. Concentration response curves can be generated by calculating the luminescence increase in test compound treated samples relative to DMSO-treated controls. Percentage remaining viability values at a single concentration can be measured. Growth inhibition (GI50) or cell viability (LD50) values can be determined from those curves.
# Compounds of the invention were assayed to measure PC3 growth inhibition at a concentration of 1 μM or 1.667 μM (Table 3). To measure PC3 growth inhibition, PC3 cells that were maintained in PRMI1640 growth medium (Life Technologies; Cat. No. 11875) at 37° C. under 5% CO2 are trypsinized and diluted at a density of 8×10^4 cells/ml, 25 ul per well of cells and plated in 384-well black tissue culture plate. The cells are incubated overnight at 37° C. under 5% CO2. For each measurement, a test compounds or vehicle control (DMSO) are diluted with AIM serum free medium and added to the cell plate. Incubate for 72 hours at 37° C. under 5% CO2. 25 μl Cell-titer glo solution (Promega; Cat. No. G8462) is added and the cell plates are incubated for 10 minutes protected from light. The luminescence is measured. Concentration response curves are generated by calculating the luminescence increase in test compound-treated samples relative to DMSO-treated controls. Percentage remaining viability values at a single concentration, growth inhibition (GI50) or cell viability (LD50) values are determined from those curves. One skilled in the art will appreciate that these values are subject to experimental variation.
# Chain of hNAMPT protein (P43490 whole entry): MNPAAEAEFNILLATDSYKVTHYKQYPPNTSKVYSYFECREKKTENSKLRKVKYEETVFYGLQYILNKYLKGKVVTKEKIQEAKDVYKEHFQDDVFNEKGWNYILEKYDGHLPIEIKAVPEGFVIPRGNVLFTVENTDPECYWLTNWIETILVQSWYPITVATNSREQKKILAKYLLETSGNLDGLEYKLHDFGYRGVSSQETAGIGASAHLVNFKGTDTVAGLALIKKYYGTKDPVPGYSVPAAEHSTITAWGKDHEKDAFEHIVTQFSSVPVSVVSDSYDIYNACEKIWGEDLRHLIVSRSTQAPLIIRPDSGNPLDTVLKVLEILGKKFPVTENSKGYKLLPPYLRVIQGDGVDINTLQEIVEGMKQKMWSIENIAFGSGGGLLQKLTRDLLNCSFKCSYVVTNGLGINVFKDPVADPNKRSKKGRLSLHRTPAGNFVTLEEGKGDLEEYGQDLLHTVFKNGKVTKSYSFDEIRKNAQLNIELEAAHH
Structure (SMILES),IC50 ([1]; NAMPT IC50 range class),inhibition at 1 µM ([1]; compound concentration 1 μM),inhibition at 1.667 µM [2],inhibition at 1 µM [2],inhibition at 1 µM ([1]; NAMPT inhibition at compound concentration 1 μM),"IC50 ([1]; NAMPT inhibition, IC50 range class)"
"O=C(NCCc1ncc[nH]1)c1ccc2nc(N3CCCCC3)c(-c3ccc(F)cc3)nc2c1 [Compound I-1, 3-(4-Fluorophenyl)-N-[2-(1H-imidazol-2-yl)ethyl]-2-(piperidin-1-yl)quinoxaline-6-carboxamide]",500 to 1000 nM,51%,3%,–,–,–
"CC(=O)Nc1cccc(-c2nc3ccc(C(=O)NCCCn4ccnc4)cc3nc2-c2ccccc2)c1 [Compound I-2, 2-(3-acetamidophenyl)-N-[3-(1H-imidazol-1-yl)propyl]-3-phenylquinoxaline-6-carboxamide]",100 to 500 nM,77%,–,-7%,–,–
"CN1CC=C(c2nc3cc(C(=O)NCCCn4ccnc4)ccc3nc2-c2ccccc2)CC1 [Compound I-3, N-[3-(1H-imidazol-1-yl)propyl]-3-(1-methyl-1,2,3,6-tetrahydropyridin-4-yl)-2-phenylquinoxaline-6-carboxamide]",2000 to 10000 nM,9%,–,39%,–,–
"Cn1cncc1CCNC(=O)c1ccc2nc(N3CCCCC3)c(-c3ccc(F)cc3)nc2c1 [Compound I-4, 3-(4-fluorophenyl)-N-[2-(1-methyl-1H-imidazol-5-yl)ethyl]-2-(piperidin-1-yl)quinoxaline-6-carboxamide]",< 100 nM,93%,2%,–,–,–
"O=C(NCCCn1ccnc1)c1ccc2nc(-c3ccncc3)c(-c3ccccc3)nc2c1 [Compound I-5, N-[3-(1H-imidazol-1-yl)propyl]-3-phenyl-2-(pyridin-4-yl)quinoxaline-6-carboxamide]",500 to 1000 nM,53%,–,-7%,–,–
"NC(=O)c1ccc(-c2nc3cc(C(=O)NCCCn4ccnc4)ccc3nc2-c2ccccc2)cc1 [Compound I-6, 3-(4-carbamoylphenyl)-N-[3-(1H-imidazol-1-yl)propyl]-2-phenylquinoxaline-6-carboxamide]",2000 to 10000 nM,20%,–,91%,–,–
"O=C1CN(c2nc3ccc(C(=O)NCCCn4ccnc4)cc3nc2-c2ccccc2)CN1 [Compound I-7, N-[3-(1H-imidazol-1-yl)propyl]-2-(4-oxoimidazolidin-1-yl)-3-phenylquinoxaline-6-carboxamide]",2000 to 10000 nM,12%,–,105%,–,–
"O=C(NCCCn1nnnc1S)c1ccc2nc(-c3ccc(F)cc3)c(-c3ccc(F)cc3)nc2c1 [Compound I-8, 2,3-bis(4-fluorophenyl)-N-[3-(5-sulfanyl-1H-tetrazol-1-yl)propyl]quinoxaline-6-carboxamide]",1000 to 2000 nM,43%,–,103%,–,–
"Cc1nc(C)c(-c2nc3cc(C(=O)NCCCn4ccnc4)ccc3nc2-c2ccccc2)s1 [Compound I-9, 3-(2,4-dimethyl-1,3-thiazol-5-yl)-N-[3-(1H-imidazol-1-yl)propyl]-2-phenylquinoxaline-6-carboxamide]",1000 to 2000 nM,36%,–,1%,–,–
"NCc1nc2ccc(C(=O)NCCCn3ccnc3)cc2nc1-c1ccccc1 [Compound I-10, 2-(aminomethyl)-N-[3-(1H-imidazol-1-yl)propyl]-3-phenylquinoxaline-6-carboxamide]",2000 to 10000 nM,23%,–,99%,–,–
"O=C(NCCCn1ccnc1)c1ccc2nc(N3Cc4ccccc4C3)c(-c3ccccc3)nc2c1 [Compound I-11, 2-(1,3-dihydro-2H-isoindol-2-yl)-N-[3-(1H-imidazol-1-yl)propyl]-3-phenylquinoxaline-6-carboxamide]",100 to 500 nM,85%,–,-7%,–,–
"COc1cccc(-c2nc3cc(C(=O)NCCCc4ncc[nH]4)ccc3nc2N2CCC(O)CC2)c1 [Compound I-12, 2-(4-hydroxypiperidin-1-yl)-N-[3-(1H-imidazol-2-yl)propyl]-3-(3-methoxyphenyl)quinoxaline-6-carboxamide]",< 100 nM,> 99%,2%,–,–,–
"COc1ccccc1-c1nc2ccc(C(=O)NCCCn3ccnc3)cc2nc1-c1ccccc1 [Compound I-13, N-[3-(1H-imidazol-1-yl)propyl]-2-(2-methoxyphenyl)-3-phenylquinoxaline-6-carboxamide]",100 to 500 nM,69%,–,-6%,–,–
"O=C(NCCCn1ccnc1)c1ccc2nc(-c3ccccc3)c(N3CCS(=O)(=O)CC3)nc2c1 [Compound I-14, 3-(1,1-dioxidothiomorpholin-4-yl)-N-[3-(1H-imidazol-1-yl)propyl]-2-phenylquinoxaline-6-carboxamide]",2000 to 10000 nM,17%,–,-3%,–,–
"O=C(NCCCn1ccnc1)c1ccc2nc(-c3ccccc3)c(N3CCC4(COC4)C3)nc2c1 [Compound I-15, N-[3-(1H-imidazol-1-yl)propyl]-3-(2-oxa-6-azaspiro[3.4]oct-6-yl)-2-phenylquinoxaline-6-carboxamide]",2000 to 10000 nM,15%,–,-6%,–,–
"O=C(NCc1ccc2[nH]ncc2c1)c1ccc2nc(N3CCOCC3)c(-c3ccc(F)cc3)nc2c1 [Compound I-16, 3-(4-fluorophenyl)-N-(1H-indazol-5-ylmethyl)-2-(morpholin-4-yl)quinoxaline-6-carboxamide]",100 to 500 nM,84%,39%,–,–,–
"N#CC1CCN(c2nc3cc(C(=O)NCCCn4ccnc4)ccc3nc2-c2ccccc2)C1 (centres unmarked) [Compound I-17, 3-(3-cyanopyrrolidin-1-yl)-N-[3-(1H-imidazol-1-yl)propyl]-2-phenylquinoxaline-6-carboxamide]",2000 to 10000 nM,19%,–,4%,–,–
"O=C(NCCCc1ncc[nH]1)c1ccc2nc(N3CCC(N4CCOCC4)CC3)c(-c3ccccc3)nc2c1 [Compound I-18, N-[3-(1H-imidazol-2-yl)propyl]-2-[4-(morpholin-4-yl)piperidin-1-yl]-3-phenylquinoxaline-6-carboxamide]",< 100 nM,100%,2%,–,–,–
"O=C(NCCCn1ccnc1)c1ccc2nc(-c3ccc(F)cc3)c(-c3ccc(F)cc3)nc2c1 [Compound I-19, 2,3-bis(4-fluorophenyl)-N-[3-(1H-imidazol-1-yl)propyl]quinoxaline-6-carboxamide]",100 to 500 nM,82%,–,-1%,–,–
"O=C(NCCc1c[nH]cn1)c1ccc2nc(-c3ccc(F)cc3)c(-c3ccc(F)cc3)nc2c1 [Compound I-20, 2,3-bis(4-fluorophenyl)-N-[2-(1H-imidazol-4-yl)ethyl]quinoxaline-6-carboxamide]",1000 to 2000 nM,42%,–,111%,–,–
"COc1cccc(-c2nc3cc(C(=O)NCCCc4ncc[nH]4)ccc3nc2-c2ccc(F)cc2)n1 [Compound I-495, 2-(4-fluorophenyl)-N-[3-(1H-imidazol-2-yl)propyl]-3-(6-methoxypyridin-2-yl)quinoxaline-6-carboxamide]",–,–,–,–,96%,< 100 nM
